Test results reported in US20070231269A1, “Analgesics” (IONIX PHARMACEUTICALS LIMITED, priority 2002, published 2007).

Test: Solubility of buprenorphine hydrochloride in pectin solutions (saturated solution, hplc)
Details: for solubility: 18 °C, thermodynamic from solid; for Buprenorphine detected: solubility, 20 mg/ml pectin, pH 3-6, 18° C., expressed as buprenorphine free base

CO[C@]12CCC3(C[C@@H]1[C@](C)(O)C(C)(C)C)[C@H]1Cc4ccc(O)c5c4[C@@]3(CCN1CC1CC1)[C@H]2O5 [Buprenorphine, 5α,7α(S)-17-(cyclopropylmethyl)-α-(1,1-dimethylethyl)-4,5-epoxy-18,19-dihydro-3-hydroxy-6-methoxy-α-methyl-6,14-ethenomorphinan-7-methanol]
solubility (aqueous with cosolvent or surfactant or cyclodextrin): > 10000 µg/mL | solubility (pH 4.5, aqueous with cosolvent or surfactant or cyclodextrin): < 10000 µg/mL | Buprenorphine detected (dextrose 0-50 mg/ml): not affected significantly | Buprenorphine detected (mannitol 0-50 mg/ml): not affected significantly
